Test results reported in patent publication US20230365595A1, “INHIBITORS OF KRAS(G12D)” (Ranok Therapeutics (Hangzhou) Co. Ltd., priority 2022, published 2023).

What was measured:
[1] = test system: A427 cells; assay: CellTiter-Glo cell cytotoxicity, A427; format: cell-based; conditions: A-427, 72 h, A427 human lung carcinoma, 1 copy of KRAS(G12D), read-out: A427 72H CTG
Protocol: (§1) The following cancer cell lines were employed: A427 human lung carcinoma [1 copy of KRAS(G12D)] (ATCC, #HTB-53); AGS human gastric adenocarcinoma [1 copy of KRAS(G12D)] (ATCC, #CRL-1739); and AsPC-1 human adenocarcinoma [2 copies of KRAS(G12D)] (ATCC, CRL-1682). Cell lines were cultured essentially according to American Type Culture Collection (ATCC) recommendations.
A427 and AGS cells were plated in 96-well tissue culture plates at 4,000 cells/well and incubated at 37° C/5% CO2 for 72 hr in 100 μl of media. 3-fold serial dilutions of each test compound were prepared ranging from 20 μM to 1.02 nM. Each cell line was then treated with test compounds at various concentrations with a final concentration of 0.5%
(§2) […] 100 Ill of CellTiter-Glo® Reagent (Promega Corporation, Madison, WI) was added to each well and processed according manufacturer's protocol. Results were analyzed and IC50 values were calculated in GraphPad 7 software.

[2] = target: T1, KRAS(G12D)-SOS1 (Homo sapiens, UniProt P01116, G12D); assay: KRAS(G12D)/SOS1 HTRF binding assay; conditions: absence of GTP; 4° C. for 3 hr
T1 construct: purchased Cisbio 63ADK000CB16PEG
Protocol: Binding of test compounds to KRAS(G12D) target protein, which in turn blocks KRAS(G12D) interaction with the SOS1 protein, was measured in the absences of GTP by homogeneous time-resolved fluorescence using the KRAS-G12D/SOS1 Binding Assay Kit (Cisbio, #63ADK000CB16PEG), following the manufacturer's instructions, except as noted. 3-fold serial dilutions of each test compound were prepared ranging from 20 μM to 1.02 nM. The test compound was mixed and incubated with reaction components, incubated in a sealed plate at 4° C. for 3 hr and fluorescence was measured using a PerkinElmer Envision plate reader. The KRAS(G12D)-SOS1 IC50 values (the concentration of 50% of the maximal inhibition) were calculated using GraphPad Prism 7 software.

[3] = test system: AGS cells; assay: CellTiter-Glo cell cytotoxicity, AGS; format: cell-based; conditions: AGS human gastric adenocarcinoma, 1 copy of KRAS(G12D), read-out: AGS 72H CTG
Protocol: as §1
A427 and AGS cells were plated in 96-well tissue culture plates at 4,000 cells/well and incubated at 37° C/5% CO2 for 72 hr in 100 μl of media. 3-fold serial dilutions of each test compound were prepared ranging from 20 μM to 1.02 nM. […]
as §2

[4] = Oral bioavailability in CD-1 mice; conditions: male, CD-1, mouse, blood, 50 mg/kg
Protocol: (§3) CD-1 mice were randomly assigned to δgroups with 3 male mice in each compound group. […] Compounds were orally administered (PO) in a single dose to each mouse in its group. Blood samples were taken within 72 hours. Bioavailability (F%) was determined and by liquid chromatography-mass spectrometry (LC-MS/MS).

[5] = in vivo; conditions: male, CD-1, mouse, po, 50 mg/kg
Protocol: as §3

T1 sequence (P01116 1-188 isoform P01116-2 G12D): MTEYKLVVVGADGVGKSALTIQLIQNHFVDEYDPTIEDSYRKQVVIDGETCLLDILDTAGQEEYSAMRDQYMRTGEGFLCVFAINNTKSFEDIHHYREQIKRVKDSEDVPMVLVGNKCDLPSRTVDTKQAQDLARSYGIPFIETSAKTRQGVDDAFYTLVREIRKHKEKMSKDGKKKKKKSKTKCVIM

Compound | IC50 [1] [nM] | IC50 [3] [nM] | bioavailability [4] [%] | other results
C#Cc1c(F)ccc2cc(O)cc(-c3ncc4c(N5CC6CCC(C5)N6)nc(OCC5(CN6CC7CC7C6)CC5)nc4c3F)c12 (stereo not drawn) [drawing 115] | 1 to 100 | 1 to 100 |  | IC50 [2]: 1 to 100 nM
C#Cc1c(F)ccc2cc(O)cc(-c3ncc4c(N5CC6CCC(C5)N6C(=O)C(F)(F)F)nc(OC[C@]56CCCN5C[C@@H](F)C6)nc4c3F)c12 [drawing 112] | 1000 to 10000 | 1 to 100 |  | 
C#Cc1c(F)ccc2cc(O)cc(-c3ncc4c(N5CC6CCC(C5)N6)nc(OCC5(CN6CC7CC7C6)CC5)nc4c3F)c12 (stereo not drawn) [drawing 121] |  |  | 0.47 | 
C#Cc1c(F)ccc2cc(O)cc(-c3ncc4c(N5CC6CCC(C5)N6C(=O)C(F)(F)F)nc(OCC5(CN6CC7CC7C6)CC5)nc4c3F)c12 (stereo not drawn) [drawing 114] | 1000 to 10000 | 1 to 100 |  | 
C#Cc1c(F)ccc2cc(O)cc(-c3ncc4c(N5CC6CCC(C5)N6C(=O)C(F)(F)F)nc(OCC5(CN6CCC(F)CC6)CC5)nc4c3F)c12 [drawing 116] |  |  | 12.4 | 
C#Cc1c(F)ccc2cc(O)cc(-c3ncc4c(N5CC6CCC(C5)N6)nc(OCC5(CN6CCC(F)CC6)CC5)nc4c3F)c12 [drawing 117] |  |  | 0.82 | 
C#Cc1c(F)ccc2cc(O)cc(-c3ncc4c(N5CC6CCC(C5)N6C(=O)C(F)(F)F)nc(OCC5(CN6CC7CC7C6)CC5)nc4c3F)c12 (stereo not drawn) [drawing 120] |  |  |  | bioavailability [5]: 17.4%
C#Cc1c(F)ccc2cc(O)cc(-c3ncc4c(N5CC6CCC(C5)N6)nc(OC[C@]56CCCN5C[C@@H](F)C6)nc4c3F)c12 |  |  | 0.45 | 
C#Cc1c(F)ccc2cc(O)cc(-c3ncc4c(N5CC6CCC(C5)N6C(=O)C(F)(F)F)nc(OCC5(CN6CCC(F)CC6)CC5)nc4c3F)c12 [drawing 110] | 1 to 100 | 1 to 100 |  | IC50 [2]: 1 to 100 nM
C#Cc1c(F)ccc2cc(O)cc(-c3ncc4c(N5CC6CCC(C5)N6C(=O)C(F)(F)F)nc(OC[C@]56CCCN5C[C@@H](F)C6)nc4c3F)c12 [drawing 118] |  |  | 15.8 | 
C#Cc1c(F)ccc2cc(O)cc(-c3ncc4c(N5CC6CCC(C5)N6)nc(OCC5(CN6CCC(F)CC6)CC5)nc4c3F)c12 [drawing 111] | 1 to 100 | 1 to 100 |  | 
